{"source": "patent US20230189806A1", "about": "“FUNGICIDAL COMBINATIONS” (UPL Corporation Limited, priority 2021, published 2023)", "key": {"S. sclerotiorum": {"test_system": "S. sclerotiorum", "assay": "Paper towel roll method, incidence of S. sclerotiorum in inoculated soybean seeds", "type": "in vivo, Sclerotinia sclerotiorum", "conditions": "% control of S. sclerotiorum, 14 days at 25° C.", "procedure": "Colby Calculation: This effectiveness of all treatments as measured by percent reduction in the target phytopathogen growth, was also evaluated according to Colby's equation as below. E=X+Y−XY/100 Colby's equation If the actual/observed anti-phytopathogenic efficacy of the ipconazole and thiabendazole combination against S. sclerotiorum exceeds the calculated value, then the activity of the combination is super additive, i.e., a synergistic effect exists. In this case, the efficacy which was actually observed must be greater than the value for the expected efficacy (E) calculated from the abovementioned formula. Methodology: To evaluate the incidence of the pathogen S. sclerotiorum in soybean seeds, the laboratory paper towel roll method was used. A paper towel on a flat surface was placed and moistened with water until it was thoroughly damp. A sample size of a total of 100 soybean seeds in rows were placed on the towel. The seeds were inoculated with the fungal pathogen. The seeds were pre-treated as per the treatments mentioned in the Table 5. A second towel was moistened and placed onto the first paper towel, leaving the seeds sandwiched between the two towels. It was observed that air space in between the two towels was maintained, if not, excessive water should be removed. The two towels were rolled with the seeds in-between and place in a sealed container that retained the moisture. The paper rolls were placed upright and incubated for 14 days in an incubator at 25° C. and at a 12 h photoperiod in plastic bags, which is used to maintain humidity during the incubation. For each treatment, 400 seeds were analyzed, 8 repetitions with 50 seeds each repetition."}, "Rhizoctonia solani": {"test_system": "Rhizoctonia solani", "assay": "Seed treatment bio-efficacy against Rhizoctonia solani in inoculated soybean seeds", "type": "in vivo", "conditions": "% control of Rhizoctonia solani", "procedure": "This effectiveness of all treatments as measured by percent reduction in the target phytopathogen growth, was also evaluated according to Colby's equation as below. E=X+Y−XY/100 Colby's equation If the actual/observed anti-phytopathogenic efficacy of the ipconazole and thiabendazole combination against Rhizoctonia solani growth exceeds the calculated value, then the activity of the combination is super additive, i.e., a synergistic effect exists. In this case, the efficacy which was actually observed must be greater than the value for the expected efficacy (E) calculated from the abovementioned formula. Methodology: Experiments were carried out to evaluate the bio-efficacy of combinations according to the invention of the present disclosure consisting of ipconazole and thiabendazole against Rhizoctonia solani fungi in soybean seeds. The seeds were inoculated with Rhizoctonia solani. The fungicides were tank mixed and applied as seed treatment as described in table 4 below. Spraying volume was 5 ml/kg."}}, "data": [{"smiles": "CC(C)C1CCC(Cc2ccc(Cl)cc2)C1(O)Cn1cncn1", "note": "(centres unmarked) [Ipconazole]", "values": [{"measurement": "Observed efficacy of demethylation inhibitor fungicide (%)", "setting": "S. sclerotiorum; ipconazole 5.6 g a.i./100 kg seed", "value": 21.3, "unit": "%"}, {"measurement": "Observed efficacy of demethylation inhibitor fungicide (%)", "setting": "S. sclerotiorum; ipconazole 7.78 g a.i./100 kg seed", "value": 6.7, "unit": "%"}, {"measurement": "Observed efficacy of demethylation inhibitor fungicide (%)", "setting": "Rhizoctonia solani; ipconazole 2 g a.i./100 kg seed", "value": 49.05, "unit": "%"}, {"measurement": "Observed efficacy of demethylation inhibitor fungicide (%)", "setting": "Rhizoctonia solani; ipconazole 3 g a.i./100 kg seed", "value": 67.92, "unit": "%"}]}, {"smiles": "c1ccc2[nH]c(-c3cscn3)nc2c1", "note": "[Thiabendazole]", "values": [{"measurement": "Observed efficacy of β-tubulin assembly inhibitor fungicide (%)", "setting": "S. sclerotiorum; thiabendazole 30.9 g a.i./100 kg seed", "value": 14.6, "unit": "%"}, {"measurement": "Observed efficacy of β-tubulin assembly inhibitor fungicide (%)", "setting": "S. sclerotiorum; thiabendazole 61.9 g a.i./100 kg seed", "value": 67.4, "unit": "%"}, {"measurement": "Observed efficacy of β-tubulin assembly inhibitor fungicide (%)", "setting": "Rhizoctonia solani; thiabendazole 12 g a.i./100 kg seeds", "value": 43.39, "unit": "%"}, {"measurement": "Observed efficacy of β-tubulin assembly inhibitor fungicide (%)", "setting": "Rhizoctonia solani; thiabendazole 18 g a.i./100 kg seeds", "value": 56.60, "unit": "%"}]}]}
